Literature values, collected in US7147875B2, “Method and composition for relieving symptoms of arthritis and gout using fruit of miracles” (priority 2004, dated 2006).

COc1cc2c(c(OC)c1OC)-c1ccc(OC)c(=O)cc1[C@@H](NC(C)=O)CC2 [colchicine]
Time until the pain is completely relieved (from starting treatment): 48 h | Time until the pain subsides (from starting treatment): ≤ 12 h | Reducing pain, swelling and inflammation associated with acute gout attacks (in vivo): effective | Uric acid levels in the bloodstream (in vivo): does not decrease
